Measured values from patent publication US11746103B2, “ALK-5 inhibitors and uses thereof” (Sumitomo Pharma Oncology, Inc., priority 2020, dated 2023).
pIC50: −log10 of the molar value. Like-named read-outs stand apart in the source and are kept apart here.

Assays:
[1] = target: ALK-5 (Homo sapiens (Human), UniProt P36897); assay: LanthaScreen Eu Kinase Binding Assay, ALK-5; conditions: for pIC50: read-out: Kinase Inhibition: ALK5 IC50
Summary of the method: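 TR-FRET binding assay: compound displaces an ATP-site-directed Alexa Fluor tracer from kinase detected by Eu-labelled anti-tag antibody, lowering FRET. 10-point, 3-fold serial dilutions, 60 min incubation at room temperature, read without development step. Dose-response curves fitted.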

[2] = test system: TGF-beta induced SMAD signaling; assay: RDSR (RD SMAD reporter) Cellular Reporter Assay; assay type: cell-based; conditions: Homo sapiens, 200 pg/ml rhTGF-beta1, 24 h
Summary of the method: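 Human rhabdomyosarcoma RD cells stably carrying an SBE-driven luc2P luciferase reporter. Inhibition of SMAD signaling was quantified from ONE-Glo luminescence.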

[3] = test system: phospho-SMAD2 (Ser 465/467) in A549 xenograft; assay: A549 xenograft study, tumor phospho SMAD2; assay type: in vivo, mouse; conditions: for phospho SMAD2 levels in tumor (normalized to GAPDH): 10, 50, 75, 100 mg/Kg; for inhibition at 10 mg/kg / inhibition at 50 mg/kg / inhibition at 75 mg/kg / inhibition at 100 mg/kg: Mus musculus, A549, oral gavage, 3 hours after administration, read-out: Percent of p-SMAD2 inhibition compared to vehicle control
Text: To test compounds for in vivo on-target activity (ALK5/TGF-βR1 inhibition), a study was completed using an A549 murine xenograft model. This model was utilized since an ALK5 inhibitor is expected to reduce the amount of the key TGF-β signaling molecule phosphoSMAD2 in the A549 xenograft cells. The TGF-β mediated phosphorylation in A549 cells takes place at amino acid residue four hundred and sixty-five and four hundred and sixty-seven (both are serine residues).
Eight-week old, female athymic nude mice (Charles River) were injected with approximately four million A549 cells (ATCC, CCL-185). The cells employed were harvested and resuspended in plain RPMI media (no phenol red added) and matrigel (Fisher Scientific) at a one to one ratio. Injection comprised a two-hundred microliter sample injected into the right hind flank of each mouse. Resulting tumors were measured every three days by caliper and as tumors reached an average of one hundred and thirty millimeters cubed, mice were randomized in groups of three.
All compounds were resuspended in 1-Methyl-2-pyrrolidinone (10%) plus 20% Solutol in water (90%). Galunisertib was included as a positive control and given at seventy-five milligram per kilogram to three mice. The drug suspensions were sonicated for fifteen minutes to generate a fine particle suspension before being administered to a subject. Mice were dosed (per oral gavage) at dose levels of one hundred mg/Kg, seventy-five mg/Kg, fifty mg/Kg and ten mg/Kg with three mice in each group. A vehicle control group with three mice was used to establish the baseline level of phospho SMAD2 in the tumor xenograft. Three hours after drug administration, tumors were harvested and stored at negative eighty degrees Celsius until further processing. The phospho SMAD2 levels were determined using the BioPlex Pro anti phospho-SMAD2 (Ser 465/467) beads from Biorad and this signal was normalized using GAPDH levels from each sample (Milliplex MAP GAPDH beads, Sigma/Millipore). Tumors were processed according to kit instructions and beads analyzed using the MagPix instrument by Luminex.

[4] = test system: TGF-β1 mediated alpha-SMA expression in primary human bronchial fibroblasts derived from IPF patients; assay: Fibroblast to Myofibroblast Transformation (FMT) assay
Description: To test the ability of compounds of the invention to inhibit the TGF-β1 dependent transition of fibroblasts to myofibroblasts in a relevant disease model of IPF, a study was carried out using an FMT assay employing lung fibroblasts from IPF patients. In this model the transition of fibroblasts to myofibroblasts is determined by the expression of the biomarker alpha smooth muscle actin (SMA).
Each drug concentration condition was evaluated in biological duplicates. One hour after compound addition, cells were stimulated with 1.25 ng/ml of TGF-01 and cultured for 72 hours thereafter. At the end of 72 hours cells were fixed using formaldehyde. The results were generated using high content imaging after staining cells using the nuclear stain DAPI as well as evaluation of the expression of alpha SMA. […] As a negative control 0.1% DMSO was used matching the DMSO concentration in treated wells.

[5] = Description: Female, athymic nude mice (aged 6-8 weeks) were randomized to one of 12 study arms (n=3 per arm) (Table 16) and weighed prior to dosing. Mice were dosed via oral gavage either once daily (QD), or bi-daily (BID) for five days. […] The vehicle for PF-06952229 (PF) was 10% DMSO, 40% PEG300, 5% tween-80, 45% saline. For the vehicle alone group in this study, the PF-06952229 vehicle was used. At the end of each day for 10 days, mice were weighed, and symptoms of toxicity (if present) were recorded. A qualitative determination of overall toxicity was made based on the number and severity of symptoms for each cohort. The safety margin was determined at the end of day 10 based on the following equation: (maximum tolerated dose)/(minimum effective dose).
[6] = BID; in animal studies; cited from earlier work
[7] = test system: bleomycin-induced lung fibrosis; assay: Bleomycin-induced lung fibrosis study; assay type: in vivo, mouse
Text: Fibrosis, the formation of excess connective tissue causing stromal hardening and scar formation is a hallmark of cancer. Up to 20% of cancers are linked to chronic, inflammation-related fibrosis, including hepatocellular, gastric, esophageal, head and neck, colon, pancreatic, cervix, and vulvar cancers. The contribution of fibrosis for early cancer development remains unclear; however, in some advanced solid tumors it is believed that fibrotic tissues act like a barrier, preventing therapeutic agents like chemotherapy or biologics from penetrating the tumor tissue. Additionally, strong fibrotic tissue is thought to contribute to excluding immune cells from entering the tumor core, creating immune excluded or immune desert phenotypes. To evaluate the anti-fibrotic properties of Ex-11, a prophylactic model of bleomycin-induced lung fibrosis in male C57BL/6 mice was utilized, and various endpoints evaluated.
All mice in this study were 8-week-old male C57BL/6 mice purchased from Taconic. On Day −2 prior to bleomycin administration, all animals were weighed and distributed into groups with 10 mice each (Table 18) such that each group of animals contained animals of similar body weights.
On day 0, animals were treated with 1.5 U/kg bleomycin (Blenoxane catalog number NDC 61703-323-22, Hospira Pharmaceutical) intratracheally, except Group 1, which was administered normal saline via oropharyngeal route to serve as the healthy naïve control group. Prophylactic treatment was administered from one day prior to bleomycin administration to day 21 post bleomycin administration. On Day 21, only the morning dose was administered. Animals were harvested on day 21 and lung weights were measured. Body weights of all mice was recorded at least three times a week beginning on Day −2 and ending on the day of harvest, Day 21. Pirfenidone was used as positive control compound, as it is an FDA-approved drug for the treatment of idiopathic pulmonary fibrosis (IPF) in humans. All compounds were prepared in 10% Tween-20 in water; a homogenous suspension was formulated using a magnetic stir bar.
At the end of the study, total lung tissues were weighed and fixed for histological examination, which was conducted by a trained pathologist blinded to the treatment groups. Specifically, whole lungs from each mouse were paraffin-embedded in a single block. Two slides from each block were sectioned to the depth of the mainstem bronchi (near the center of each lobe) and stained with either hematoxylin and eosin (H&E) or Masson's trichrome (MT). Glass slides were evaluated using light microscopy by a board-certified veterinary pathologist. Lung sections were scored according to the methods described below, evaluating five randomly chosen fields in each tissue. Fixed lungs were sectioned, and consecutive tissue sections were stained with H&E or MT. Various pathological scoring parameters were used to determine the average Ashcroft score, as well as average inflammation and collagen deposition indicating fibrosis.
Parameter of scoring formalin fixed lung sections:
Modified Ashcroft Score: H&E-stained lung sections were scored according to the modified Ashcroft scale. Scores for five representative 200× microscopic fields per sample were averaged to obtain a mean score for each animal. […]

[8] = test system: KGN cells; assay: TGFβ induced proliferation, KGN; assay type: cell-based, human; conditions: TGFβ 1 ng/mL, 6 days, KGN (FoxL2 mutant)
Description: (§1) KGN and COV434 cells were seeded in triplicate in 96 well culture plates and incubated in the presence or absence of TGFβ (1 ng/mL) for 6 or 7 days, respectively. Proliferation was measured by Cell Titer Glo.

[9] = test system: COV434 cells; assay: TGFβ induced proliferation, COV434; assay type: cell-based, human; conditions: TGFβ 1 ng/mL, 7 days, COV434 (FoxL2 wild-type)
Description: as §1

[10] = read-out: RD-SMAD reporter activity
[11] = control compounds, read-out: RDSR reporter activity

Sequence of ALK-5 (P36897 34-503): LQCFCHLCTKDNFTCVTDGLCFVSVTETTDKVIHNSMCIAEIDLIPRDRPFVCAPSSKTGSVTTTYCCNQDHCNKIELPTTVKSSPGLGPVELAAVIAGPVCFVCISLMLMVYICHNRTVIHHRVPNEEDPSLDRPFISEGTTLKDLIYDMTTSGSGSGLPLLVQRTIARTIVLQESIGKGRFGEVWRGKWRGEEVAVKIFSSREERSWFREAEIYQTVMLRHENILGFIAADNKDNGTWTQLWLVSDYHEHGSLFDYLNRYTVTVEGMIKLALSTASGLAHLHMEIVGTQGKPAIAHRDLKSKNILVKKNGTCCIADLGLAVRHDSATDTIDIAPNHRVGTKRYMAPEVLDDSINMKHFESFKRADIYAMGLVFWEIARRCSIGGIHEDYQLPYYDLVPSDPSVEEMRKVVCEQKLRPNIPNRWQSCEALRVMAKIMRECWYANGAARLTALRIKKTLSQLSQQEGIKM

Compound | Kinase Selectivity: ALK2 IC50/ ALK5 IC50 [1] | pIC50 [1] | pIC50 [2, 10] | LogM IC50 αSMA ([4]; donor IPF05) | Max PIN (%) ([4]; donor IPF05) | LogM IC50 αSMA ([4]; donor IPF06) | Max PIN (%) ([4]; donor IPF06) | LogM IC50 αSMA ([4]; donor IPF08) | Max PIN (%) ([4]; donor IPF08) | further results
Cc1cccc2c(Nc3ccnc(Nc4ccc(N5CCOCC5)c(Cl)c4)n3)cnnc12 [EX-12, N2-(3-chloro-4-morpholino-phenyl)-N4-(8-methyl-cinnolin-4-yl)-pyrimidine-2,4-diamine] | (++) (10<ALK2/ALK5<100=[++]) | > 8.00 | > 7.00 | – | – | – | – | – | – | observed level of p-SMAD2 as percent of vehicle-only group ([3]; 100 mg/Kg): 45.5%; phospho SMAD2 levels in tumor (normalized to GAPDH) [3]: reduced the phopho SMAD2 levels (p-SMAD2) in a dose dependent fashion; inhibition at 10 mg/kg [3]: 19.9%; inhibition at 50 mg/kg [3]: 35.8%; inhibition at 75 mg/kg [3]: 40.1%; inhibition at 100 mg/kg ([3]; 100 mg/Kg): 55.5%
Cc1cccc2c(Nc3ccnc(Nc4ccc(N5CCOCC5)c(F)c4)n3)cnnc12 [EX-13, N2-(3-fluoro-4-morpholino-phenyl)-N4-(8-methylcinnolin-4-yl)-pyrimidine-2,4-diamine] | (++) (10<ALK2/ALK5<100=[++]) | > 8.00 | > 7.00 | – | – | – | – | – | – | phospho SMAD2 levels in tumor (normalized to GAPDH) [3]: reduced the phopho SMAD2 levels (p-SMAD2) in a dose dependent fashion; inhibition at 10 mg/kg [3]: 37.9%; inhibition at 50 mg/kg [3]: 76.3%; inhibition at 75 mg/kg [3]: 76.8%; inhibition at 100 mg/kg ([3]; 100 mg/Kg): 75.7%
c1cc(Nc2nccc(Nc3cnnc4c(C5CC5)cccc34)n2)cc(N2CCOCC2)c1 [EX-57, N4-(8-cyclopropylcinnolin-4-yl)-N2-(3-morpholinophenyl)pyrimidine-2,4-diamine] | (++) (10<ALK2/ALK5<100=[++]) | > 8.00 | > 7.00 | – | – | – | – | – | – | –
c1cc(C2CC2)c2nncc(Nc3ccnc(Nc4ccc(N5CCOCC5)cc4)n3)c2c1 [EX-58, N4-(8-cyclopropylcinnolin-4-yl)-N2-(4-morpholinophenyl)pyrimidine-2,4-diamine] | (++) (10<ALK2/ALK5<100=[++]) | > 8.00 | > 7.00 | – | – | – | – | – | – | –
Cc1cccc(-c2nn3c(c2-c2ccnc4ccc(C(N)=O)cc24)CCC3)n1 [Galunisertib, reference compound] | – | – | – | −5.7 LogM | 100.8% | −5.9 LogM | 104.4% | −5.9 LogM | 99.6% | pIC50 [2, 11]: ~6.44; potentially toxic (>25% loss of nuclei) ([4]; donor IPF06): >−5.5
COC(=O)c1ccc2c(c1)NC(=O)/C2=C(\Nc1ccc(N(C)C(=O)CN2CCN(C)CC2)cc1)c1ccccc1 [Nintedanib, reference compound] | – | – | – | −6.5 LogM | 92.1% | −6.3 LogM | 86.8% | −6.4 LogM | 88.2% | –
CC(C)c1cnc(-c2cc(Cl)ccc2F)cc1Nc1ccncc1C(=O)NC(CO)CO [PF-06952229] | – | – | – | – | – | – | – | – | – | tolerated dose ([5]; BID): 50 mg/kg; dose at which mice experienced DLT ([5]; mouse, in vivo): ≥ 150 mg/kg; safety margin (maximum tolerated dose)/(minimum effective dose) ([5]; mouse, in vivo): ~1.7 fold; minimum effective dose [6]: 30 mg/kg
Cc1cccc(-c2[nH]c(CNc3ccccc3F)nc2-c2ccc3ncnn3c2)n1 [Vactosertib, reference compound] | – | – | – | −7.4 LogM | 32.7% | −7.0 LogM | 112.1% | −7.1 LogM | 104.0% | pIC50 [2, 11]: ~8.10; safety margin (maximum tolerated dose)/(minimum effective dose) ([5]; female, mouse, in vivo, 10 days): 3.75-6 fold
Cc1ccc(=O)n(-c2ccccc2)c1 [pirfenidone, reference compound] | – | – | – | – | – | – | – | – | – | animals lost during the study ([7]; 100 mg/kg PO BID): Only one animal in the pirfenidone group was lost; total lung weight ([7]; day 21, vs bleomycin/vehicle): significant decrease in lung weight; largest percent change in weight ([7]; group 4, day 9, average): −1.2%
TGFβ: TGFβ cytokine used at 1 ng/mL to stimulate KGN and COV434 cells | – | – | – | – | – | – | – | – | – | proliferation (Cell Titer Glo) [8]: significantly increased; proliferation (Cell Titer Glo) [9]: no change
